Data on four compounds can be found in publication PMC3914206.

Format in all cases: binding
What all share (conditions): Compound Concentration 10 µM

Assay [1] concerns the target T1, panel of 442 kinases (Homo sapiens, UniProt Q6P3R8).
T1 construct: purchased KINOMEscan
T1 sequence (Q6P3R8 1-708): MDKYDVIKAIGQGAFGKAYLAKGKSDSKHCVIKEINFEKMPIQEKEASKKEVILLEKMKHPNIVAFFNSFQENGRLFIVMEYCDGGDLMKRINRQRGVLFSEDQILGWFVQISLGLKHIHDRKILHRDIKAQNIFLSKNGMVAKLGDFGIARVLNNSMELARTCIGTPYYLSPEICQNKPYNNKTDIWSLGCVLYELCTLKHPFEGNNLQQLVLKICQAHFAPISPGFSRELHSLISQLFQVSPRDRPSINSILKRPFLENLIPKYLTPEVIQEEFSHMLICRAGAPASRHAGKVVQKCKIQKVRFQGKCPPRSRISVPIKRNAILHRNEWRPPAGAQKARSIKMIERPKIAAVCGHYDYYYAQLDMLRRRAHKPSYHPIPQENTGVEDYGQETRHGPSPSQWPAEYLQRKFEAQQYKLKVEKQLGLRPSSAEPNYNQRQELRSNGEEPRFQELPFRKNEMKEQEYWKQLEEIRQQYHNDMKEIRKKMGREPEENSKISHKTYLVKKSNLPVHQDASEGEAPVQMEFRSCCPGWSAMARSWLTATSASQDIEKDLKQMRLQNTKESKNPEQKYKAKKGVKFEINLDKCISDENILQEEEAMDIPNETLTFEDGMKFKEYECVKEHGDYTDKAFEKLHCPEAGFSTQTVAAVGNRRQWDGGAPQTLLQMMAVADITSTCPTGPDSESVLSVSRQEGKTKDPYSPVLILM
An excerpt:
(§1) We assessed the selectivity of members of this scaffold using the KINOMEscan methodology across a near comprehensive panel of 442 kinases [[18,27]].

Assay [2] has as its target T2, panel of 442 kinases (Homo sapiens, UniProt P22607).
T2 construct: purchased KINOMEscan
Source text: as §1

For assay [3], the target named is T3, panel of 442 kinases (Homo sapiens, UniProt P42336, E545A).
T3 construct: purchased KINOMEscan
Source text: as §1

T3 sequence (P42336 whole entry E545A): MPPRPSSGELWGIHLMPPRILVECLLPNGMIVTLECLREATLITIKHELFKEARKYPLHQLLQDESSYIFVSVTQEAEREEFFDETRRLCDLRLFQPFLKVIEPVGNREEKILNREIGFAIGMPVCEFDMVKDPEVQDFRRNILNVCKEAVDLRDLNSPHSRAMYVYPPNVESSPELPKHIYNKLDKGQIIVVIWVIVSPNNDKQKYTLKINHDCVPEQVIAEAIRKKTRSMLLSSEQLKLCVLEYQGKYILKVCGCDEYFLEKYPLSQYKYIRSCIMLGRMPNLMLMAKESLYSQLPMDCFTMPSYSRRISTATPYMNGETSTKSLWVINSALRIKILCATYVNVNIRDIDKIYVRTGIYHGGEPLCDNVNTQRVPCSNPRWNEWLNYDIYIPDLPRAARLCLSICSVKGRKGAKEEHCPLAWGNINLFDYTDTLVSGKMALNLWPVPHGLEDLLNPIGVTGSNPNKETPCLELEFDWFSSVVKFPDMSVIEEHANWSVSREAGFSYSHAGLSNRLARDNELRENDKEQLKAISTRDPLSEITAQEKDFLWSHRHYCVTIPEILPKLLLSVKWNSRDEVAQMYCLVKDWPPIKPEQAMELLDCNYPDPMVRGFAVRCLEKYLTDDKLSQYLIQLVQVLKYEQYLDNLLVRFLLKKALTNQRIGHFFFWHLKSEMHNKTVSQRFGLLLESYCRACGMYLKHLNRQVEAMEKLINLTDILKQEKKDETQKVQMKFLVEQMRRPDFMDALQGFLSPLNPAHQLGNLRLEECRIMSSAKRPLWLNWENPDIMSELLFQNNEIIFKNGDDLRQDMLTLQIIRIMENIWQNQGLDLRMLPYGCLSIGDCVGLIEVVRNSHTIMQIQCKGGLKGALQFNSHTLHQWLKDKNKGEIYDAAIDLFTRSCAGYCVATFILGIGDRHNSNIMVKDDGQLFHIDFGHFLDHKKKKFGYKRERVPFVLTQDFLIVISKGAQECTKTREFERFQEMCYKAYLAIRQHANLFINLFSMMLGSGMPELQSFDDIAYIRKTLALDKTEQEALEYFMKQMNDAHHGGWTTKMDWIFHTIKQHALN
T2 sequence (P22607 23-806): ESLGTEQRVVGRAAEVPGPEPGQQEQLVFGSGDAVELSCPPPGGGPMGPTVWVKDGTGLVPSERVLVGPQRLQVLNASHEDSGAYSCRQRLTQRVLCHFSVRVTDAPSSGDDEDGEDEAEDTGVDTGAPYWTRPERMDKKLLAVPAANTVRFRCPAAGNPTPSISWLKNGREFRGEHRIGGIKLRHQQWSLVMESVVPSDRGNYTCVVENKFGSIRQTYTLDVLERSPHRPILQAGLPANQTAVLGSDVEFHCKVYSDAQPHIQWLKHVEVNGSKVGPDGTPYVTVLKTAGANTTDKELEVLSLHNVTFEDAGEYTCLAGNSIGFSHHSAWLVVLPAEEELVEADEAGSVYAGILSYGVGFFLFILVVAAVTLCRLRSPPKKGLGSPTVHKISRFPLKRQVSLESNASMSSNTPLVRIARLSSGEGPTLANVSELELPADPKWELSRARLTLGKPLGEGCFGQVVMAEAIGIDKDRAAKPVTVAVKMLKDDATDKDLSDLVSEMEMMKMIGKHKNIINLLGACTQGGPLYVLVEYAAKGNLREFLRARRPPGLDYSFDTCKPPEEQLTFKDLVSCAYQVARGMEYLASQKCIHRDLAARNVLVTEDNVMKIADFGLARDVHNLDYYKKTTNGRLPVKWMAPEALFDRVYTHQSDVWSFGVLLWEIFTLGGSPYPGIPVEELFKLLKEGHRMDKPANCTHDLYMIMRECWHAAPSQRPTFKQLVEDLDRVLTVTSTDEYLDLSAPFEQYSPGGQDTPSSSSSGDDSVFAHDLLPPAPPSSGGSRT

Regarding `COc1cc(C(=O)N2CCC(N3CCN(C)CC3)CC2)ccc1Nc1ncc2c(n1)N(C1CCCC1)c1ccccc1C(=O)N2C` [Compound 25, 11-cyclopentyl-2-((2-methoxy-4-(4-(4-methylpiperazin-1-yl)piperidine-1-carbonyl)phenyl)amino)-5-methyl-5H-benzo[e]pyrimido[5,4-b][1,4]diazepin-6(11H)-one], on panel of 442 kinases [1], the “KINOMEscan: NEK5” value came to 100. The “KINOMEscan: FGFR3” value on panel of 442 kinases [2] came out at 88. Further, the “KINOMEscan: PIK3CA(E545A)” value at panel of 442 kinases [3] was determined as 85.

For `COc1cc(C(=O)N2CCC(N3CCN(C)CC3)CC2)ccc1Nc1ncc2c(n1)N1CCc3cccc(c31)C(=O)N2C` [Compound 24], the “KINOMEscan: NEK5” value at panel of 442 kinases [1] was found to be 57. Further, the “KINOMEscan: FGFR3” value on panel of 442 kinases [2] is given as 80. Moreover, at panel of 442 kinases [3], the “KINOMEscan: PIK3CA(E545A)” value came to 68.

As to `COc1cc(C(=O)N2CCC(N3CCN(C)CC3)CC2)ccc1Nc1ncc2c(n1)N(C)c1ccccc1C(=O)N2C` [15 (LRRK2-IN-1)], the “KINOMEscan: NEK5” value on panel of 442 kinases [1] is listed as 100. Besides, on panel of 442 kinases [2], the “KINOMEscan: FGFR3” value was 80. Moreover, the “KINOMEscan: PIK3CA(E545A)” value on panel of 442 kinases [3] was 98.

For `CCOc1cc(C(=O)N2CCC(N3CCN(C)CC3)CC2)ccc1Nc1ncc2c(n1)N(C1CCCC1)c1ccccc1C(=O)N2C` [Compound 26], the “KINOMEscan: NEK5” value on panel of 442 kinases [1] is 100. Besides, the “KINOMEscan: FGFR3” value on panel of 442 kinases [2] is recorded as 100. In addition, at panel of 442 kinases [3], the “KINOMEscan: PIK3CA(E545A)” value is recorded as 91.
